According to patent publication US9586947B2, “Imidazoline derivatives, preparation methods thereof, and their applications in medicine” (priority 2012, dated 2017):
Where two headings read alike, the source gives them in different places.

Legend:
[1] = tested on: PSA secretion of LNCaP cells; test: Inhibitory activity on PSA secretion of LNCaP cells; assay type: cell-based; settings: Homo sapiens, 96 h, read-out: IC50 (inhibition of PSA secretion of LNCaP cells)
Experimental: The following in vitro assay was performed to determine the activity of the compounds of the present invention for inhibiting prostate specific antigen (PSA) secretion of LNCaP cells.
(11). Testosterone culture medium: RIPM 1640 culture medium, 10% CS-FBS, 1% Pen Strep, 1 nM testosterone
LNCaP cells were subcultured in cell culture medium, resuspended in active carbon culture medium, and then inoculated into a 96-well plate (100 μl/well) with an inoculation density of 5×10^4 cells/well.
(§1) The test compounds were dissolved in DMSO (dimethyl sulfoxide) and prepared as a 10 mM stock solution. When used, the stock solution was diluted with 5×DMSO and then diluted with a threefold gradient to obtain 8 gradient concentrations. Then, the 8 gradient concentrations were each diluted with 20× testosterone culture medium, in order to ensure DMSO concentration in each culture system was 0.5%. Diluted test compounds remained to be tested.
10 μl of diluted test compounds were added to a 96-well plate and mixed gently. 10 μl of 0.5% DMSO diluted with active carbon culture medium was added to the blank group, and 10 μl of 0.5% DMSO diluted with testosterone culture medium was added to the control group. The 96-well plate was cultured in an incubator under the conditions of 37° C. and 5% CO2.
After 4 days of incubation, 60 μl of cell cultural supernatants were collected, and the OD450 value per well was measured on a NOVO Star microplate reader using PSA kit (Abnova, KA0208).
(§2) IC50 values were calculated from the data of the inhibition rates of the test compounds at various concentrations.

[2] = tested on: PSA secretion of LNCaP-AR cells (AR-overexpressed LNCaP cells); test: Agonist activity on PSA secretion of LNCaP-AR cells; assay type: cell-based; settings: 96 h, 4 days, OD value (test compounds)/OD value (blank control), blank control 100
Experimental: The following in vitro assay was performed to determine the activity of a high concentration of the compounds of the present invention for agitating the PSA secretion of LNCaP-AR cells (AR-overexpressed LNCaP cells, referred to as “LNCaP-AR cells” for short, constructed by a retroviral transfection method).
LNCaP-AR cells were subcultured in cell culture medium, resuspended in active carbon culture medium, and then inoculated into a 96-well plate (100 μl/well) with an inoculation density of 5×10^4 cells/well.
as §1, with “DMSO into the two concentrations of 2 mM” for “5×DMSO”, “0.6 mM.” for “then diluted with a threefold gradient to obtain 8 gradient concentrations.”, “diluted” for “8 gradient”, “active carbon” for “testosterone”
10 μl of diluted test compounds were added to a 96-well plate and mixed gently. 10 μl of 0.5% DMSO diluted with active carbon culture medium was added to the blank control group.
After 4 days of incubation, 60 μl of cell cultural supernatants were collected, and the OD value of PSA per well was measured on a NOVO Star microplate reader using PSA kit (abnova, KA0208).
Agonist activity of the test compounds of the present invention on PSA secretion of LNCaP-AR cells was evaluated by the percentage of OD value (test compounds)/OD value (blank control). When the percentage value is greater than 100, the test compounds have agonist activity on PSA secretion of LNCaP-AR cells compared to the blank control. Conversely, when the percentage value is less than 100, the test compounds have no agonist activity on PSA secretion of LNCaP-AR cells compared to the blank control.

[3] = Pharmacokinetics assay in rats, intragastric administration; assay type: in vivo; settings: Sprague-Dawley, rat, po, male SD rats, 5 mg/kg; for Vd/F: read-out: Apparent Distribution Volume Vz/F; for AUC: read-out: Area Under Curve AUC; for CL/F: read-out: Clearance CLz/F; for half-life: read-out: Half-Life T½ (converted); for MRT: read-out: Mean Residence Time MRT; for Cmax: read-out: Plasma Conc. Cmax
Experimental: Male rats were used as test animals. The compounds of Example 6, Example 9, Example 11, Example 13, Example 15, Example 16, Example 17, Example 44, and Example 45 were administered intragastrically to rats to determine the drug concentration in plasma at different time points by LC/MS/MS method. The pharmacokinetic behavior of the compounds of the present invention was studied and evaluated in rats.
27 healthy adult male Sprague-Dawley (SD) rats, purchased from SINO-BRITISH SIPPR/BK LAB. ANIMAL LTD., CO, Certificate No.: SCXK (Shanghai) 2008-0016, were divided into 9 groups, with 3 rats in each group.
The appropriate amount of test compounds was weighed and mixed with 0.5% CMC-Na to prepare a 0.5 mg/mL suspension by an ultrasonic method.
After an overnight fast, 27 SD rats were divided into 9 groups, and administered the compounds intragastrically at a dose of 5.0 mg/kg and an administration volume of 10 mL/kg.
Compounds of Example 6, Example 9, Example 11, Example 13, Example 15, Example 16, Example 17, Example 44, and Example 45 were administered intragastrically to rats. Blood samples (0.1 mL) were taken from the orbital sinus before administration, and at 0.5 h, 1.0 h, 2.0 h, 3.0 h, 4.0 h, 6.0 h, 8.0 h, 11.0 h, and 24.0 h after administration, stored in heparinized tubes, and centrifuged for 5 minutes at 3,500 rpm to separate blood plasma. The plasma samples were stored at −20° C. The rats were fed 2 hours after administration.
The concentration of the different test compounds in rat plasma after intragastrically administering the test compounds was determined by LC-MS/MS method. The linearity of the method is 1.00-2000 ng/ml. Plasma samples were analyzed after protein precipitation was accomplished by the addition of methanol.

LNCaP cells = test: Proliferation inhibition of LNCaP cells (CCK-8); assay type: cell-based; settings: Homo sapiens, 144 h, cultured 3 + 3 days, CCK-8, OD at 450 nm
Experimental: The following in vitro assay was performed to determine the activity of the compounds of the present invention for inhibiting the proliferation of LNCaP cells.
(1). Cell counting reagent CCK-8 (DOJINDO, CK04)
See experimental procedure from Test Example 1.
After LNCaP cells were cultured for 3 days, the culture medium, test compounds, blank group, and control group were renewed with half of the liquid volume, and were cultured for another 3 days. Then, all 96-well plates were mixed gently with 10 μl of CCK-8 and cultured in an incubator for 2-3 hours under the conditions of 37° C. and 5% CO2. The OD value per well was measured at 450 nm on a Victor3 microplate reader.
as §2

[4] = LNCaP cells, 1 nM testosterone medium, 4 days of incubation, PSA kit OD450

CC1(C)C(=O)N(c2ccc(C#N)c(C(F)(F)F)c2)C(=S)N1c1ccc(OCC(O)CO)c(F)c1 (stereo not drawn) [Example 13, 4-(3-(4-(2,3-Dihydroxypropoxy)-3-fluorophenyl)-4,4-dimethyl-5-oxo-2-thioxoimidazolidin-1-yl)-2-(trifluoromethyl)benzonitrile]
IC50 ([1]; LNCaP): 88 nM | activity at 3 µM [2]: 53.6% | activity at 10 µM [2]: 71.5% | Vd/F ([3]; in vivo): 2.31 ± 0.553 L/kg | AUC ([3]; in vivo): 26500 ± 7380 ng·h/mL | CL/F ([3]; in vivo): 3.35 ± 1.1 mL/min/kg | half-life ([3]; in vivo): 8.1 ± 0.65 h | MRT ([3]; in vivo): 13.1 ± 1.5 h | Cmax ([3]; in vivo): 1550 ± 197 ng/mL

CC1(C)C(=O)N(c2ccc(C#N)c(C(F)(F)F)c2)C(=S)N1c1ccc(O[C@@H]2COC[C@H]2O)cc1 [Example 15, 4-(3-(4-(((3R,4R)-4-hydroxytetrahydrofuran-3-yl)oxy)phenyl)-4,4-dimethyl-5-oxo-2-thioxoimidazolidin-1-yl)-2-(trifluoromethyl)benzonitrile]
IC50 ([1]; LNCaP): 52 nM | activity at 3 µM [2]: 77.5% | activity at 10 µM [2]: 84.8% | Vd/F ([3]; in vivo): 3.97 ± 0.341 L/kg | AUC ([3]; in vivo): 21400 ± 4100 ng·h/mL | CL/F ([3]; in vivo): 3.99 ± 0.75 mL/min/kg | half-life ([3]; in vivo): 11.7 ± 1.7 h | MRT ([3]; in vivo): 18.2 ± 2.3 h | Cmax ([3]; in vivo): 999 ± 172 ng/mL

CC1(C)C(=O)N(c2ccc(C#N)c(C(F)(F)F)c2)C(=S)N1c1ccc(O[C@@H]2COC[C@H]2O)c(F)c1 [Example 8, 4-(3-(3-fluoro-4-(((3R,4R)-4-hydroxytetrahydrofuran-3-yl)oxy)phenyl)-4,4-dimethyl-5-oxo-2-thioxoimidazolidin-1-yl)-2-(trifluoromethyl)benzonitrile]
IC50 ([1]; LNCaP): 21 nM | activity at 3 µM [2]: 65% | activity at 10 µM [2]: 99.5%

CC1(C)C(=O)N(c2ccc(C#N)c(C(F)(F)F)c2)C(=S)N1c1ccc(OC[C@H](O)CO)cc1 [Example 45, (R)-4-(3-(4-(2,3-Dihydroxypropoxy)phenyl)-4,4-dimethyl-5-oxo-2-thioxoimidazolidin-1-yl)-2-(trifluoromethyl)benzonitrile]
IC50 [1, 4]: 35 nM | IC50 (LNCaP cells): 74 nM | Vd/F ([3]; plasma): 3.27 ± 0.261 L/kg | AUC ([3]; plasma): 13000 ± 365 ng·h/mL | CL/F ([3]; plasma): 6.4 ± 0.18 mL/min/kg | half-life ([3]; plasma): 5.9 ± 0.3 h | MRT ([3]; plasma): 10 ± 0.6 h | Cmax ([3]; plasma): 980 ± 173 ng/mL

CC1(C)C(=O)N(c2ccc(C#N)c(C(F)(F)F)c2)C(=S)N1c1ccc(OC2COC2)cc1 [Example 40, 4-(4,4-Dimethyl-3-(4-((oxetan-3-yl)oxy)phenyl)-5-oxo-2-thioxoimidazolidin-1-yl)-2-(trifluoromethyl)benzonitrile]
IC50 [1, 4]: 29 nM | IC50 (LNCaP cells): 196 nM

CC1(C)C(=O)N(c2ccc(C#N)c(C(F)(F)F)c2)C(=S)N1c1ccc(OCC2(N)CC2)cc1 [Example 37, 4-(3-(4-((1-Aminocyclopropyl)methoxy)phenyl)-4,4-dimethyl-5-oxo-2-thioxoimidazolidin-1-yl)-2-(trifluoromethyl)benzonitrile]
IC50 [1, 4]: 23 nM | IC50 (LNCaP cells): 63 nM

CC1(C)C(=O)N(c2ccc(C#N)c(C(F)(F)F)c2)C(=S)N1c1ccc(O[C@@H]2CCOC2)c(F)c1 [Example 1, (R)-4-(3-(3-Fluoro-4-((tetrahydrofuran-3-yl)oxy)phenyl)-4,4-dimethyl-5-oxo-2-thioxoimidazolidin-1-yl)-2-(trifluoromethyl)benzonitrile]
IC50 [1, 4]: 34 nM | IC50 (LNCaP cells): 195 nM

CNC(=O)COc1ccc(N2C(=S)N(c3ccc(C#N)c(C(F)(F)F)c3)C(=O)C2(C)C)cc1F [Example 32, 2-(4-(3-(4-Cyano-3-(trifluoromethyl)phenyl)-5,5-dimethyl-4-oxo-2-thioxoimidazolidin-1-yl)-2-fluorophenoxy)-N-methylacetamide]
IC50 [1, 4]: 110 nM | IC50 (LNCaP cells): 134 nM

CC1(C)C(=O)N(c2ccc(C#N)c(C(F)(F)F)c2)C(=S)N1c1ccc(OC(F)F)nc1 [Example 30, 4-(3-(6-(Difluoromethoxy)pyridin-3-yl)-4,4-dimethyl-5-oxo-2-thioxoimidazolidin-1-yl)-2-(trifluoromethyl)benzonitrile]
IC50 [1, 4]: 17 nM | IC50 (LNCaP cells): 58 nM

CC1(C)C(=O)N(c2ccc(C#N)c(C(F)(F)F)c2)C(=S)N1c1ccc(OC2COC2)c(F)c1 [Example 41, 4-(3-(3-Fluoro-4-((oxetan-3-yl)oxy)phenyl)-4,4-dimethyl-5-oxo-2-thioxoimidazolidin-1-yl)-2-(trifluoromethyl)benzonitrile]
IC50 [1, 4]: 24 nM | IC50 (LNCaP cells): 283 nM

CC1(C)C(=O)N(c2ccc(C#N)c(C(F)(F)F)c2)C(=S)N1c1ccc(OCC2(C#N)CC2)c(F)c1 [Example 39, 4-(3-(4-((1-Cyanocyclopropyl)methoxy)-3-fluorophenyl)-4,4-dimethyl-5-oxo-2-thioxoimidazolidin-1-yl)-2-(trifluoromethyl)benzonitrile]
IC50 [1, 4]: 27 nM | IC50 (LNCaP cells): 256 nM

CC1(C)C(=O)N(c2ccc(C#N)c(C(F)(F)F)c2)C(=S)N1c1ccc(O[C@@H]2CCOC2)nc1 [Example 21, (R)-4-(4,4-Dimethyl-5-oxo-3-(6-((tetrahydrofuran-3-yl)oxy)pyridin-3-yl)-2-thioxoimidazolidin-1-yl)-2-(trifluoromethyl)benzonitrile]
IC50 [1, 4]: 76 nM | IC50 (LNCaP cells): 92 nM
